# Data: US12568998B2, “Flavouring composition with balanced taste profile” (SYMRISE AG, priority 2021, dated 2026)
# Entries after “also recorded” stand apart in the source; their conditions may differ.
# Key:
# [1] = Sensory profiling of ice tea preparation, HT/HC ratio 1:3.33 (Example 2); details: tea base, 4 wt.-% HFCS, 0.10 wt.-% citric acid, HT 3 ppm and/or HC 10 ppm; for Acidity / Balance / Bitter / Complexity / Fruity-Juicy / Long lasting / Off-Notes / Onset Sweetness / Overall Sweetness / Syrupy / Tea: line scale (10 cm)
# Protocol: In order to further validate the insights derived from Example 1, the interaction and main effects of HT and HC are to be shown in a setup in which a drinkable preparation with a tea base, 0.05 wt.-% lemon flavor, 4 wt.-% high fructose corn syrup, 0.1 wt.-% citric acid and 0.03 wt.-% trisodium citrate was prepared. That preparation was divided into four samples by varying the dosage of HC and HT resulting in one sample containing no HC and no HT (control), containing 10 ppm HC and no HT (HC main effect), containing no HC and 3 ppm HT (HT main effect) and, respectively, containing 10 ppm HC and 3 ppm HT (HT×HC interaction effect). […] The final preparations were profiled by an expert panel consisting of ten educated panelists (two measurements). Different sensorial attributes (ice tea language with focus on sweetness) were assessed and scored on an unstructured line scale (10 cm) for its perceived intensity. The results of the testing are shown below in Table 2 as well as in FIG. 1 and FIG. 2.
# [2] = Sensory descriptive analysis of ice tea prototypes, sweetness factor (Example 1); details: HC 10 ppm and/or HT 3 ppm
# [3] = Sensory profiling of ice tea preparation, HT/HC ratios 1:1 and 1:6 (Example 4); details: tea base, 5 wt.-% HFCS, 0.18 wt.-% citric acid, line scale (10 cm)
# Protocol: In order to further validate the insights derived from Example 1 and 2, the interaction and main effects of HT and HC are to be shown in a setup in which a drinkable preparation with a tea base, 0.05 wt.-% lemon flavor, 5 wt.-% high fructose corn syrup, 0.18 wt.-% citric acid and 0.03 wt.-% trisodium citrate was prepared. That preparation was divided into four samples by varying the dosage of HT and HC resulting in one sample containing no HT and no HC (control), containing 5 or 3 ppm HT and no HC (HT main effect), containing no HT and 5 or 18 ppm HC (HC main effect) and, respectively, containing 5 or 3 ppm HT and or 18 ppm HC (HT×HC interaction effect). […] The final preparations were profiled by an expert panel consisting of seven educated panelists (two measurements). Different sensorial attributes (ice tea language with focus on sweetness) were assessed and scored on an unstructured line scale (10 cm) for its perceived intensity. The results of the testing are shown below in Table 4 and 5 as well as in FIG. 4 to FIG. 7.
# [4] = Dosing tests with an excess of hesperetin, sensory ranking (Example 3)
# Protocol: A drinkable preparation with 7 wt.-% sucrose and 0.15 wt.-% citric acid was prepared. This preparation was used as a base composition for dosing tests with different dosing regimens of hesperetin dihydrochalcone and hesperetin. The different samples were evaluated by an expert panel consisting of five educated panelists and ranked on a scale from 0 to 9. The results of the testing are shown below in Table 3 as well as in FIG. 3.
# [5] = J. Chem. Senses 1979, 4(1), 35-47; cited from earlier work
# [6] = Acesulfame K Ice tea Base, 60 ppm
# [7] = HFCS Ice tea Base, 2 wt. % High Fructose corn sirup
# [8] = Invert Sugar Syrup Ice tea Base, 2 wt. % invert sugar syrup
# [9] = Reb A Ice tea Base, 60 ppm rebaudioside A
# [10] = Reb A/Reb D Ice tea Base, 60 ppm rebaudioside A/60 ppm rebaudioside D
# [11] = Reb A/Reb M Ice tea Base, 60 ppm rebaudioside A/45 ppm rebaudioside M
# [12] = Reb M/Reb D Ice tea Base, 45 ppm rebaudioside M/60 ppm rebaudioside D
# [13] = Sucralose Ice tea Base, 100 ppm sucralose
# [14] = Sugar Free Ice tea Base, no added sugar/sweetener
structure (smiles),measurement,setting,value
"COc1ccc(CCC(=O)c2c(O)cc(O)cc2O)cc1O [HC, hesperetin dihydrochalcone]",Remarks,[1],"lingering,; also recorded: sweetener"
same,Acidity,[1],3.22
same,Balance,[1],3.50
same,Bitter,[1],2.58
same,Complexity,[1],3.62
same,Fruity-Juicy,[1],3.88
same,Long lasting,[1],3.90
same,Off-Notes,[1],2.25
same,Onset Sweetness,[1],4.39
same,Overall Sweetness,[1],4.80
same,Syrupy,[1],3.70
same,Tea,[1],4.08
same,ANOVA (sweetness factor),[2]; [6],−0.1
same,ANOVA (sweetness factor),[2]; [7],−0.9
same,ANOVA (sweetness factor),[2]; [8],−1
same,ANOVA (sweetness factor),[2]; [9],−0.5
same,ANOVA (sweetness factor),[2]; [10],−0.1
same,ANOVA (sweetness factor),[2]; [11],0
same,ANOVA (sweetness factor),[2]; [12],−0.3
same,ANOVA (sweetness factor),[2]; [13],−0.8
same,ANOVA (sweetness factor),[2]; [14],−1.3
same,Acidity,[3]; HT 3 ppm and/or HC 18 ppm,3.12
same,Balance,[3]; HT 3 ppm and/or HC 18 ppm,3.66
same,Bitter,[3]; HT 3 ppm and/or HC 18 ppm,1.94
same,Complexity,[3]; HT 3 ppm and/or HC 18 ppm,4.58
same,Fruity-Juicy,[3]; HT 3 ppm and/or HC 18 ppm,4.27
same,Long lasting,[3]; HT 3 ppm and/or HC 18 ppm,4.20
same,Off-Notes,[3]; HT 3 ppm and/or HC 18 ppm,1.01
same,Onset Sweetness,[3]; HT 3 ppm and/or HC 18 ppm,4.99
same,Overall Sweetness,[3]; HT 3 ppm and/or HC 18 ppm,5.60
same,Syrupy,[3]; HT 3 ppm and/or HC 18 ppm,4.32
same,Tea,[3]; HT 3 ppm and/or HC 18 ppm,4.01
same,Acidity,[3]; HT 5 ppm and/or HC 5 ppm,3.46
same,Balance,[3]; HT 5 ppm and/or HC 5 ppm,3.68
same,Bitter,[3]; HT 5 ppm and/or HC 5 ppm,1.93
same,Complexity,[3]; HT 5 ppm and/or HC 5 ppm,3.90
same,Fruity-Juicy,[3]; HT 5 ppm and/or HC 5 ppm,4.68
same,Long lasting,[3]; HT 5 ppm and/or HC 5 ppm,3.11
same,Off-Notes,[3]; HT 5 ppm and/or HC 5 ppm,0.70
same,Onset Sweetness,[3]; HT 5 ppm and/or HC 5 ppm,4.19
same,Overall Sweetness,[3]; HT 5 ppm and/or HC 5 ppm,4.46
same,Syrupy,[3]; HT 5 ppm and/or HC 5 ppm,3.96
same,Tea,[3]; HT 5 ppm and/or HC 5 ppm,4.11
"COc1ccc([C@@H]2CC(=O)c3c(O)cc(O)cc3O2)cc1O [HT, hesperetin]",hesperetin concentration exhibiting off-tastes in the preparation,[4],more than 30 ppm
same,Acidity,[1],3.71
same,Balance,[1],3.20
same,Bitter,[1],2.93
same,Complexity,[1],3.06
same,Fruity-Juicy,[1],3.60
same,Long lasting,[1],2.32
same,Off-Notes,[1],1.85
same,Onset Sweetness,[1],3.14
same,Overall Sweetness,[1],3.39
same,Syrupy,[1],2.67
same,Tea,[1],4.30
same,ANOVA (sweetness factor),[2]; [6],−2.4
same,ANOVA (sweetness factor),[2]; [7],−3.2
same,ANOVA (sweetness factor),[2]; [8],−3.3
same,ANOVA (sweetness factor),[2]; [9],−2.8
same,ANOVA (sweetness factor),[2]; [10],−2.4
same,ANOVA (sweetness factor),[2]; [11],−2.3
same,ANOVA (sweetness factor),[2]; [12],−2.6
same,ANOVA (sweetness factor),[2]; [13],−3.1
same,ANOVA (sweetness factor),[2]; [14],−3.6
same,Acidity,[3]; HT 3 ppm and/or HC 18 ppm,4.11
same,Balance,[3]; HT 3 ppm and/or HC 18 ppm,3.24
same,Bitter,[3]; HT 3 ppm and/or HC 18 ppm,2.21
same,Complexity,[3]; HT 3 ppm and/or HC 18 ppm,3.99
same,Fruity-Juicy,[3]; HT 3 ppm and/or HC 18 ppm,4.19
same,Long lasting,[3]; HT 3 ppm and/or HC 18 ppm,2.61
same,Off-Notes,[3]; HT 3 ppm and/or HC 18 ppm,0.77
same,Onset Sweetness,[3]; HT 3 ppm and/or HC 18 ppm,4.22
same,Overall Sweetness,[3]; HT 3 ppm and/or HC 18 ppm,4.53
same,Syrupy,[3]; HT 3 ppm and/or HC 18 ppm,3.72
same,Tea,[3]; HT 3 ppm and/or HC 18 ppm,4.39
same,Acidity,[3]; HT 5 ppm and/or HC 5 ppm,4.06
same,Balance,[3]; HT 5 ppm and/or HC 5 ppm,3.94
same,Bitter,[3]; HT 5 ppm and/or HC 5 ppm,1.87
same,Complexity,[3]; HT 5 ppm and/or HC 5 ppm,3.87
same,Fruity-Juicy,[3]; HT 5 ppm and/or HC 5 ppm,4.32
same,Long lasting,[3]; HT 5 ppm and/or HC 5 ppm,2.79
same,Off-Notes,[3]; HT 5 ppm and/or HC 5 ppm,0.58
same,Onset Sweetness,[3]; HT 5 ppm and/or HC 5 ppm,3.89
same,Overall Sweetness,[3]; HT 5 ppm and/or HC 5 ppm,4.07
same,Syrupy,[3]; HT 5 ppm and/or HC 5 ppm,3.59
same,Tea,[3]; HT 5 ppm and/or HC 5 ppm,4.16
COc1ccc(CCC(=O)c2ccccc2O)cc1O [dihydrochalcone (1)],taste,[5],intensively sweet tasting
COc1ccc(CCC(=O)c2c(O)cccc2O)cc1O [dihydrochalcone (2)],taste,[5],tasteless
